Results: ChEMBL document CHEMBL1201862, “PubChem BioAssay data set” (2004)
Each block holds one molecule with its values, some of them ahead of it. Activity calls are given as the source filed them.

Key:
[1] = target: T1, Methionyl-tRNA synthetase, putative (Trypanosoma brucei brucei, UniProt Q38C91); assay type: functional, Trypanosoma brucei brucei strain 927/4 GUTat10.1
T1 sequence (Q38C91 whole entry): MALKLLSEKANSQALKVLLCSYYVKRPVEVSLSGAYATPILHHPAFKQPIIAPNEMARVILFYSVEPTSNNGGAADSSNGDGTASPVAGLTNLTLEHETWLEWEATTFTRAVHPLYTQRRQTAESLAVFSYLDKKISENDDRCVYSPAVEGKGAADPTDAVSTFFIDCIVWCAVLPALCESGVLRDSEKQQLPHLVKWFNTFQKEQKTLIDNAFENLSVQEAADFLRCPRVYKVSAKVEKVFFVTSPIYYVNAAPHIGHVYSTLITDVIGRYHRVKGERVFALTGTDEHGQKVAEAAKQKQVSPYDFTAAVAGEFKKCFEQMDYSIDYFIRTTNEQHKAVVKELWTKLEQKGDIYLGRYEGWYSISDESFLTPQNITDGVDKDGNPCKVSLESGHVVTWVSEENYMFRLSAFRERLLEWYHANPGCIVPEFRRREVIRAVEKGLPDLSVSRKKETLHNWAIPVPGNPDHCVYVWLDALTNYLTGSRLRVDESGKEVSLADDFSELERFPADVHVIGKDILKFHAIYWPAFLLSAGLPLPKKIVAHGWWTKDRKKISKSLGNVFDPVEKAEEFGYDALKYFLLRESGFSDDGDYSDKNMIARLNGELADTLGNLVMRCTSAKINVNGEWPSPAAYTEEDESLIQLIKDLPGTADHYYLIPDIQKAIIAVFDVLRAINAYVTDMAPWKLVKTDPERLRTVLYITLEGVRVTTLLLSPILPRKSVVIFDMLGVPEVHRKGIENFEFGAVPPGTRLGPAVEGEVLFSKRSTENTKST

[2] = Counterscreen for inhibitors of Trypanosoma brucei methionyl tRNA synthetase (MetRS): Luminescence-based cell-based high throughput dose response assay to identify compounds that are cytotoxic to Jurkat human T lymphocyte cells.; assay type: functional
[3] = target: T1, Methionyl-tRNA synthetase, putative; assay type: functional, Trypanosoma brucei brucei strain 927/4 GUTat10.1; remark: listed apart in the source
[4] = target: T2, Probable nicotinate-nucleotide adenylyltransferase (Staphylococcus aureus (strain N315), UniProt P65502); assay type: functional, Staphylococcus aureus subsp. aureus N315;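 for IC50 Mean: confirmatory dose-response retesting of NadD inhibitor hits first found in an ultra-high-throughput screen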
Streptococcus = assay: GAS UMAA2166 growth inhibition – luminescence, BacTiterGlo, counter-screen for streptokinase expression inhibitor project, dose response (AID 1915); assay type: functional, organism-based;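 note: potency for reduction of bacterial viability or growth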
[5] = target: T2, Probable nicotinate-nucleotide adenylyltransferase; assay type: functional, Staphylococcus aureus subsp. aureus N315; settings: read-out: IC50_Mean
[6] = tested on: Streptococcus sp. 'group A'; assay: Streptococcus pyogenes SK(-)GAS viability under kanamycin – luminescence, BacTiterGlo, confirmation, counter-screen for streptokinase expression inhibitor project, dose response (AID 1900); assay type: functional, organism-based
Aminopeptidase N = target: T3, Aminopeptidase N (Plasmodium falciparum FcB1/Columbia, UniProt O96935); assay: malaria alanyl aminopeptidase activity blockers – biochemical, fluorogenic H-Leu-NHMec substrate, 1536-well (AID 1445); set-up: species or system Plasmodium falciparum 3D7, 3D7
T3 sequence (O96935 whole entry): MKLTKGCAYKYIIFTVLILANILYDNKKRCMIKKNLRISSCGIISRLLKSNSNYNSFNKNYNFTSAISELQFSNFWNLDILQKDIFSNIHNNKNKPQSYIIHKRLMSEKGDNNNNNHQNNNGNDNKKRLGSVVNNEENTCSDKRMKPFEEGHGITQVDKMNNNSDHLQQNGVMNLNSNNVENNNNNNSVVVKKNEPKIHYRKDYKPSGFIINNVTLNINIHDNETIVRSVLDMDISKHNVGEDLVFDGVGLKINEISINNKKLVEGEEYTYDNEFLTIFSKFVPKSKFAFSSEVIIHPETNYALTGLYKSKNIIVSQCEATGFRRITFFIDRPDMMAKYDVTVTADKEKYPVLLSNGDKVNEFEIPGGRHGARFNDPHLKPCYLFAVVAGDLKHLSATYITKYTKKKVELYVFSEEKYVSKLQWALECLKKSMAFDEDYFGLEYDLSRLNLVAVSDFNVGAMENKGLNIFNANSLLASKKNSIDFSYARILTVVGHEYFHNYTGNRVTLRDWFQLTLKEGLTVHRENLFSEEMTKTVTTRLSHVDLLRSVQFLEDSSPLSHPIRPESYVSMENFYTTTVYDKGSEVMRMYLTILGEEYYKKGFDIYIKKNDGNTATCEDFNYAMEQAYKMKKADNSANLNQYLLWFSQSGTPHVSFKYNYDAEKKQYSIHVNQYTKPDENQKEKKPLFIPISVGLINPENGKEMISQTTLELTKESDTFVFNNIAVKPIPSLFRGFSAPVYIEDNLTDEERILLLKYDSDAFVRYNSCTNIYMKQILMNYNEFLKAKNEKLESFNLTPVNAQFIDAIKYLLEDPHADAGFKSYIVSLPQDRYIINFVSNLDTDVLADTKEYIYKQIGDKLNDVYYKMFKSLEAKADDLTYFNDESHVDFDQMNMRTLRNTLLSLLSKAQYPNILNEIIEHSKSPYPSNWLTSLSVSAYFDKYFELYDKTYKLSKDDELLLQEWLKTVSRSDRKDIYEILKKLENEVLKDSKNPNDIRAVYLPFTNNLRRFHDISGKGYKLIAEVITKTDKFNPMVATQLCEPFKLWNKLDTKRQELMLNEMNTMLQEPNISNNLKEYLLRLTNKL

[7] = target: Photoreceptor-specific nuclear receptor (Homo sapiens, UniProt Q9Y5X4); assay type: functional, cell-based;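 note: CHO-S cells with Gal4-NCOR and VP16-NR2E3 two-hybrid luciferase reporter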
[8] = target: ADP-ribosylation factor GTPase-activating protein 1 (Rattus norvegicus, UniProt Q62848); assay: Fluorescence polarization-based biochemical high throughput dose response screening assay to identify inhibitors of ADP-ribosylation factor GTPase activating protein 1 (ARFGAP1).; assay type: functional
[9] = target: 5-hydroxytryptamine receptor 2A (Mus musculus, UniProt P35363); assay type: functional, cell-based;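 note: CHO-K1 cells with tagged receptor and beta-arrestin; agonist potency measured as compound-induced activation of the receptor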
Chain of 5-hydroxytryptamine receptor 2A (P35363 whole entry): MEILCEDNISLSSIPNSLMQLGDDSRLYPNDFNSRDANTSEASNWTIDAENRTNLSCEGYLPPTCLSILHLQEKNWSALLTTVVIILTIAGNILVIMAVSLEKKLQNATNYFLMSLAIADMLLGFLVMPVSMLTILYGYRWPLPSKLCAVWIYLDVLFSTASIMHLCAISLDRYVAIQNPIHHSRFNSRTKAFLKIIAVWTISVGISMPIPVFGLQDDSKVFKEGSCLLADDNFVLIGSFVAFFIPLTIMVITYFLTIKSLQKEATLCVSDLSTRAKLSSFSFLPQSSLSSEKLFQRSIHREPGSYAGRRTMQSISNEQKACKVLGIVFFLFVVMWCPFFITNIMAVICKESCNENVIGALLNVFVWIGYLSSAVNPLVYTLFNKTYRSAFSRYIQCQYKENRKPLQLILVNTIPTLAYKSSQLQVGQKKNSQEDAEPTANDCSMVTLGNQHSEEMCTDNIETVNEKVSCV

Chain of ADP-ribosylation factor GTPase-activating protein 1 (Q62848 whole entry): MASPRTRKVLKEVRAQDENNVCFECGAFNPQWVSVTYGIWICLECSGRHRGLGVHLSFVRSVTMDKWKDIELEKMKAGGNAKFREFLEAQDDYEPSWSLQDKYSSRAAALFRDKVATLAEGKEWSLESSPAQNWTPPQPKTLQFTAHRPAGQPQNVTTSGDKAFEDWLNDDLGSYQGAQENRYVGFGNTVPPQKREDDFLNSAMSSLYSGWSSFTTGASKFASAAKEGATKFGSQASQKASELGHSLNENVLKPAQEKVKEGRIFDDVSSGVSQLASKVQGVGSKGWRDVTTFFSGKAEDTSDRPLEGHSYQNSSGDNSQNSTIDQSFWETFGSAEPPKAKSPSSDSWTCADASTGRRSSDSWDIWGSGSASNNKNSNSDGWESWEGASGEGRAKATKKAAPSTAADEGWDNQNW
Chain of Photoreceptor-specific nuclear receptor (Q9Y5X4 whole entry, the tested form may be a part): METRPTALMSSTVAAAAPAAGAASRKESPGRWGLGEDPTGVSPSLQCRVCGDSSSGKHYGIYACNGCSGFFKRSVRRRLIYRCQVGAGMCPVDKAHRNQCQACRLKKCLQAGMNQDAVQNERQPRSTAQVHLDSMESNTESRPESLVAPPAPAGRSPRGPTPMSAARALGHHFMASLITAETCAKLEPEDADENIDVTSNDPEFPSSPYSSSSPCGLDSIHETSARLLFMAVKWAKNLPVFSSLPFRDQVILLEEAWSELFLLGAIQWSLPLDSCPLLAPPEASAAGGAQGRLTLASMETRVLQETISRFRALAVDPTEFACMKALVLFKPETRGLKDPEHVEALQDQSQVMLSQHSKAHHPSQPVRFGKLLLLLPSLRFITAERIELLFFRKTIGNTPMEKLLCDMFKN

Structure (SMILES): O=C(CCCNC(=O)c1ccc(Cl)cc1)Nc1ccc(Br)cc1
IC50 [1]: 119 µM (inactive) | IC50 [2]: 83.4 µM (inactive) | IC50 [3]: 7.11 µM (active)

Structure (SMILES): COc1ccc(NC(=O)CSc2nc(O)c3c(C(F)(F)F)cc(-c4cccs4)nc3n2)c(OC)c1
IC50 [4]: 4.89 µM (active) | EC50 (Streptococcus): 124 µM (active) | IC50 [5]: 32.1 µM (active) | EC50 [6]: 11.6 µM (active) | IC50 (Aminopeptidase N): 56.5 µM (active)

Structure (SMILES): O=C(NNC(=O)c1ccc(-n2cncn2)c([N+](=O)[O-])c1)c1ccccc1
IC50 [1]: 32.3 µM (inactive) | IC50 [2]: 83.3 µM (inactive) | IC50 [3]: 11.9 µM (inactive)

IC50 [7]: 3.19 µM (active)
Structure (SMILES): O=C(Nc1cccc(OC(F)(F)F)c1)C1Cc2c(-c3ccc4c(c3)OCO4)ccnc2O1 (centres undefined)

IC50 [8]: 33.6 µM (inactive)
Structure (SMILES): COc1cc(NC(=O)COc2ccc([N+](=O)[O-])cc2)ccc1NC(=O)c1ccco1

EC50 [9]: 0.806 µM (active)
Structure (SMILES): NC[C@H](O)c1ccc(O)c(O)c1 [NOREPINEPHRINE BITARTRATE]
